Test results from patent publication US20260256792A1, “TREATMENT OF CHRONIC SPONTANEOUS URTICARIA BY ADMINISTERING (R)-2-[3-[4-AMINO-3-(2-FLUORO-4-PHENOXY-PHENYL)PYRAZOLO[3,4-D]PYRIMIDIN-1-YL]PIPERIDINE-1-CARBONYL]-4-METHYL-4-[4-(OXETAN-3-YL)PIPERAZIN-1-YL]PENT-2-ENENITRILE” (priority 2023, published 2026).

Tested on: moderate-to-severe chronic spontaneous urticaria (CSU)
Test: Phase 2 CSU study: urticaria activity score over 7 days (UAS7)
Format: in vivo, human
Details: ITT
Description: The study comprises a 12 week, randomized, double-blind, placebo-controlled, multi-center, dose-ranging efficacy and safety phase, followed by a 40 week open label extension (OLE) phase (see FIG. 1). The study consists of three phases and an optional OLE phase. […] Clinically, CSU is characterized by the spontaneous and recurrent appearance of pruritic hives. The proposed primary endpoints were the UAS7 at Week 12 in EU and EU reference countries and the ISS7 in the US. Regardless of where a participant was from, all assessments were the same. The UAS7 score is a composite score containing both the HSS7 and the ISS7. This allowed a global assessment of the two key components of urticaria: hives and itch. […] The UAS is a validated PRO measure. […] The daily UAS scores range from 0 to 6 point/day. […] Patients were to complete the UAS using the e-diary. […] The following secondary endpoints were to be analyzed using the same approach as for the primary endpoint: • Change from baseline in UAS7 at Week 4 • Change from baseline in UAS7 at Week 12 (for US and US reference countries) • Change from baseline in ISS7 at Week 12 (except US and US reference countries) • Change from baseline in HSS7 at Week 12 The following responder secondary endpoints were to be analyzed using the Cochran-Mantel-Haenszel test adjusted by region: • Proportion of participants with UAS7<6 at Week 12 • Proportion of participants with UAS7=0 at Week 12 Participants who received selected prohibited medications and/or rescue medications were to be considered as non-responders for time points after the medication usage. For other participants, all available data including those collected during the off-treatment period were to be used to determine the responder/non-responder status. Missing data were to be considered as non-responders.

CC(C)(C=C(C#N)C(=O)N1CCC[C@@H](n2nc(-c3ccc(Oc4ccccc4)cc3F)c3c(N)ncnc32)C1)N1CCN(C2COC2)CC1 [rilzabrutinib, (R)-2-[3-[4-amino-3-(2-fluoro-4-phenoxy-phenyl)pyrazolo[3,4-d]pyrimidin-1-yl]piperidine-1-carbonyl]-4-methyl-4-[4-(oxetan-3-yl)piperazin-1-yl]pent-2-enenitrile]
Responder n (%), UAS7 ≤6 (400 mg QPM, Week 12): 2 (5.3) n (%) | Imputed non-responder n (%), UAS7 = 0 (400 mg TID, Week 1): 0 n (%) | Imputed non-responder n (%), UAS7 ≤6 (400 mg TID, Week 1): 0 n (%) | Non-responder n (%), UAS7 = 0 (400 mg TID, Week 1): 40 (97.6) n (%) | Non-responder n (%), UAS7 ≤6 (400 mg TID, Week 1): 31 (75.6) n (%) | OR for rilzabrutinib vs. placebo, UAS7 = 0 (400 mg TID, Week 1): 1.084 | RRD (%) for rilzabrutinib vs. placebo, UAS7 = 0 (400 mg TID, Week 1): 0.2 % | RRD (%) for rilzabrutinib vs. placebo, UAS7 ≤6 (400 mg TID, Week 1): 17.6 % | Responder n (%), UAS7 = 0 (400 mg TID, Week 1): 1 (2.4) n (%) | Responder n (%), UAS7 ≤6 (400 mg TID, Week 1): 10 (24.4) n (%) | Imputed non-responder n (%), UAS7 = 0 (400 mg TID, Week 2): 0 n (%) | Imputed non-responder n (%), UAS7 ≤6 (400 mg TID, Week 2): 0 n (%) | Non-responder n (%), UAS7 = 0 (400 mg TID, Week 2): 35 (85.4) n (%) | Non-responder n (%), UAS7 ≤6 (400 mg TID, Week 2): 30 (73.2) n (%) | OR for rilzabrutinib vs. placebo, UAS7 = 0 (400 mg TID, Week 2): 6.522 | OR for rilzabrutinib vs. placebo, UAS7 ≤6 (400 mg TID, Week 2): 6.049 | RRD (%) for rilzabrutinib vs. placebo, UAS7 = 0 (400 mg TID, Week 2): 11.0 % | RRD (%) for rilzabrutinib vs. placebo, UAS7 ≤6 (400 mg TID, Week 2): 19.4 % | Responder n (%), UAS7 = 0 (400 mg TID, Week 2): 6 (14.6) n (%) | Responder n (%), UAS7 ≤6 (400 mg TID, Week 2): 11 (26.8) n (%) | Imputed non-responder n (%), UAS7 = 0 (400 mg TID, Week 3): 0 n (%) | Imputed non-responder n (%), UAS7 ≤6 (400 mg TID, Week 3): 0 n (%) | Non-responder n (%), UAS7 = 0 (400 mg TID, Week 3): 37 (90.2) n (%) | Non-responder n (%), UAS7 ≤6 (400 mg TID, Week 3): 30 (73.2) n (%) | OR for rilzabrutinib vs. placebo, UAS7 = 0 (400 mg TID, Week 3): 4.480 | OR for rilzabrutinib vs. placebo, UAS7 ≤6 (400 mg TID, Week 3): 3.055 | RRD (%) for rilzabrutinib vs. placebo, UAS7 = 0 (400 mg TID, Week 3): 6.9 % | RRD (%) for rilzabrutinib vs. placebo, UAS7 ≤6 (400 mg TID, Week 3): 14.9 % | Responder n (%), UAS7 = 0 (400 mg TID, Week 3): 4 (9.8) n (%) | Responder n (%), UAS7 ≤6 (400 mg TID, Week 3): 11 (26.8) n (%) | Imputed non-responder n (%), UAS7 = 0 (400 mg TID, Week 4): 3 (7.3) n (%) | Imputed non-responder n (%), UAS7 ≤6 (400 mg TID, Week 4): 3 (7.3) n (%) | Non-responder n (%), UAS7 = 0 (400 mg TID, Week 4): 37 (90.2) n (%) | Non-responder n (%), UAS7 ≤6 (400 mg TID, Week 4): 34 (82.9) n (%) | OR for rilzabrutinib vs. placebo, UAS7 = 0 (400 mg TID, Week 4): 1.867 | OR for rilzabrutinib vs. placebo, UAS7 ≤6 (400 mg TID, Week 4): 1.217 | RRD (%) for rilzabrutinib vs. placebo, UAS7 = 0 (400 mg TID, Week 4): 4.0 % | RRD (%) for rilzabrutinib vs. placebo, UAS7 ≤6 (400 mg TID, Week 4): 2.4 % | Responder n (%), UAS7 = 0 (400 mg TID, Week 4): 4 (9.8) n (%) | Responder n (%), UAS7 ≤6 (400 mg TID, Week 4): 7 (17.1) n (%) | Imputed non-responder n (%), UAS7 = 0 (400 mg TID, Week 5): 3 (7.3) n (%) | Imputed non-responder n (%), UAS7 ≤6 (400 mg TID, Week 5): 3 (7.3) n (%) | Non-responder n (%), UAS7 = 0 (400 mg TID, Week 5): 34 (82.9) n (%) | Non-responder n (%), UAS7 ≤6 (400 mg TID, Week 5): 27 (65.9) n (%) | OR for rilzabrutinib vs. placebo, UAS7 = 0 (400 mg TID, Week 5): 7.606 | OR for rilzabrutinib vs. placebo, UAS7 ≤6 (400 mg TID, Week 5): 8.858 | RRD (%) for rilzabrutinib vs. placebo, UAS7 = 0 (400 mg TID, Week 5): 13.2 % | RRD (%) for rilzabrutinib vs. placebo, UAS7 ≤6 (400 mg TID, Week 5): 26.0 % | Responder n (%), UAS7 = 0 (400 mg TID, Week 5): 7 (17.1) n (%) | Responder n (%), UAS7 ≤6 (400 mg TID, Week 5): 14 (34.1) n (%) | Imputed non-responder n (%), UAS7 = 0 (400 mg TID, Week 6): 5 (12.2) n (%) | Imputed non-responder n (%), UAS7 ≤6 (400 mg TID, Week 6): 5 (12.2) n (%) | Non-responder n (%), UAS7 = 0 (400 mg TID, Week 6): 32 (78.0) n (%) | Non-responder n (%), UAS7 ≤6 (400 mg TID, Week 6): 28 (68.3) n (%) | OR for rilzabrutinib vs. placebo, UAS7 = 0 (400 mg TID, Week 6): 9.649 | OR for rilzabrutinib vs. placebo, UAS7 ≤6 (400 mg TID, Week 6): 2.273 | RRD (%) for rilzabrutinib vs. placebo, UAS7 = 0 (400 mg TID, Week 6): 17.2 % | RRD (%) for rilzabrutinib vs. placebo, UAS7 ≤6 (400 mg TID, Week 6): 14.2 % | Responder n (%), UAS7 = 0 (400 mg TID, Week 6): 9 (22.0) n (%) | Responder n (%), UAS7 ≤6 (400 mg TID, Week 6): 13 (31.7) n (%) | Imputed non-responder n (%), UAS7 = 0 (400 mg TID, Week 7): 6 (14.6) n (%) | Imputed non-responder n (%), UAS7 ≤6 (400 mg TID, Week 7): 6 (14.6) n (%) | Non-responder n (%), UAS7 = 0 (400 mg TID, Week 7): 37 (90.2) n (%) | Non-responder n (%), UAS7 ≤6 (400 mg TID, Week 7): 30 (73.2) n (%) | OR for rilzabrutinib vs. placebo, UAS7 = 0 (400 mg TID, Week 7): 4.480 | OR for rilzabrutinib vs. placebo, UAS7 ≤6 (400 mg TID, Week 7): 3.247
